Source: the NIST ThermoML archive (doi:10.1021/je700260f)
± gives the expanded uncertainty stated by the source.

Conditions: 293.15 K, Liquid, Vibrating tube method

FC(C(F)(F)F)C(F)(F)F [1,1,1,2,3,3,3-heptafluoropropane]
Conditions | mass density [kg/m3]
11786 kPa | 1474.1 ± 1.6
11826 kPa | 1474.2 ± 1.6
11860 kPa | 1474.3 ± 1.6
11894 kPa | 1474.6 ± 1.6
11934 kPa | 1474.7 ± 1.6
11967 kPa | 1474.9 ± 1.6
12017 kPa | 1475.1 ± 1.6
12045 kPa | 1475.2 ± 1.6
12079 kPa | 1475.4 ± 1.6
12119 kPa | 1475.5 ± 1.6
12156 kPa | 1475.8 ± 1.6
12195 kPa | 1475.9 ± 1.6
12235 kPa | 1476.1 ± 1.6
12280 kPa | 1476.3 ± 1.6
12314 kPa | 1476.4 ± 1.6
12354 kPa | 1476.7 ± 1.6
12388 kPa | 1476.9 ± 1.6
12422 kPa | 1476.9 ± 1.6
12468 kPa | 1477.1 ± 1.6
12502 kPa | 1477.4 ± 1.6
12549 kPa | 1477.5 ± 1.6
12591 kPa | 1477.7 ± 1.6
12626 kPa | 1477.9 ± 1.6
12670 kPa | 1478 ± 1.6
12710 kPa | 1478.2 ± 1.6
12745 kPa | 1478.3 ± 1.6
12888 kPa | 1479 ± 1.6
12980 kPa | 1479.5 ± 1.6
13020 kPa | 1479.6 ± 1.6
13072 kPa | 1479.9 ± 1.6
13099 kPa | 1480 ± 1.6
13131 kPa | 1480.1 ± 1.6
13163 kPa | 1480.3 ± 1.6
13195 kPa | 1480.5 ± 1.6
13233 kPa | 1480.6 ± 1.6
13264 kPa | 1480.7 ± 1.6
13307 kPa | 1480.8 ± 1.6
13344 kPa | 1481.1 ± 1.6
13371 kPa | 1481.1 ± 1.6
13408 kPa | 1481.4 ± 1.6
13440 kPa | 1481.4 ± 1.6
13489 kPa | 1481.8 ± 1.6
13521 kPa | 1481.8 ± 1.6
13564 kPa | 1482 ± 1.6
13606 kPa | 1482.2 ± 1.6
13649 kPa | 1482.4 ± 1.6
13687 kPa | 1482.5 ± 1.6
13719 kPa | 1482.6 ± 1.6
13758 kPa | 1482.8 ± 1.6
13797 kPa | 1482.9 ± 1.6
13824 kPa | 1483.2 ± 1.6
13857 kPa | 1483.3 ± 1.6
13891 kPa | 1483.4 ± 1.6
13930 kPa | 1483.6 ± 1.6
13963 kPa | 1483.7 ± 1.6
14065 kPa | 1484.2 ± 1.6
14101 kPa | 1484.3 ± 1.6
14128 kPa | 1484.5 ± 1.6
14165 kPa | 1484.6 ± 1.6
14192 kPa | 1484.8 ± 1.6
14223 kPa | 1484.9 ± 1.6
14249 kPa | 1484.9 ± 1.6
14285 kPa | 1485 ± 1.6
14316 kPa | 1485.3 ± 1.6
14339 kPa | 1485.3 ± 1.6
14370 kPa | 1485.5 ± 1.6
14403 kPa | 1485.6 ± 1.6
14431 kPa | 1485.7 ± 1.6
14462 kPa | 1485.9 ± 1.6
14489 kPa | 1486 ± 1.6
14520 kPa | 1486.2 ± 1.6
14557 kPa | 1486.3 ± 1.6
14598 kPa | 1486.4 ± 1.6
14635 kPa | 1486.6 ± 1.6
14673 kPa | 1486.7 ± 1.6
14705 kPa | 1487 ± 1.6
14732 kPa | 1486.9 ± 1.6
14759 kPa | 1487.1 ± 1.6
14795 kPa | 1487.3 ± 1.6
14831 kPa | 1487.5 ± 1.6
14872 kPa | 1487.5 ± 1.6
14913 kPa | 1487.8 ± 1.6
14940 kPa | 1487.9 ± 1.6
14973 kPa | 1488 ± 1.6
15005 kPa | 1488.2 ± 1.6
15038 kPa | 1488.2 ± 1.6
15080 kPa | 1488.6 ± 1.6
15103 kPa | 1488.6 ± 1.6
15144 kPa | 1488.7 ± 1.6
15181 kPa | 1488.9 ± 1.6
15209 kPa | 1488.8 ± 1.6
15237 kPa | 1489.1 ± 1.6
15270 kPa | 1489.2 ± 1.6
15298 kPa | 1489.5 ± 1.6
15335 kPa | 1489.4 ± 1.6
15363 kPa | 1489.7 ± 1.6
15398 kPa | 1489.7 ± 1.6
15425 kPa | 1489.9 ± 1.6
15467 kPa | 1490.1 ± 1.6
15504 kPa | 1490.2 ± 1.6
15527 kPa | 1490.4 ± 1.6
15569 kPa | 1490.6 ± 1.6
15611 kPa | 1490.8 ± 1.6
15639 kPa | 1490.9 ± 1.6
15672 kPa | 1490.8 ± 1.6
15719 kPa | 1491.1 ± 1.6
15747 kPa | 1491.3 ± 1.6
15777 kPa | 1491.4 ± 1.6
15814 kPa | 1491.4 ± 1.6
15837 kPa | 1491.6 ± 1.6
15880 kPa | 1491.9 ± 1.6
15913 kPa | 1492 ± 1.6
15942 kPa | 1492.2 ± 1.6
15975 kPa | 1492.2 ± 1.6
16018 kPa | 1492.4 ± 1.6
16046 kPa | 1492.3 ± 1.6
16079 kPa | 1492.7 ± 1.6
16118 kPa | 1492.8 ± 1.6
16153 kPa | 1493 ± 1.6
16181 kPa | 1493.1 ± 1.6
16215 kPa | 1493.2 ± 1.6
16244 kPa | 1493.2 ± 1.6
16277 kPa | 1493.6 ± 1.6
16315 kPa | 1493.7 ± 1.6
16344 kPa | 1493.7 ± 1.6
16377 kPa | 1493.9 ± 1.6
16411 kPa | 1493.9 ± 1.6
16446 kPa | 1494.1 ± 1.6
16474 kPa | 1494.1 ± 1.6
16503 kPa | 1494.3 ± 1.6
16532 kPa | 1494.4 ± 1.6
16734 kPa | 1495.3 ± 1.6
16772 kPa | 1495.4 ± 1.6
16831 kPa | 1495.6 ± 1.6
16865 kPa | 1495.9 ± 1.6
16904 kPa | 1496 ± 1.6
16934 kPa | 1496.2 ± 1.6
16964 kPa | 1496.2 ± 1.6
16998 kPa | 1496.3 ± 1.6
17038 kPa | 1496.5 ± 1.6
17068 kPa | 1496.6 ± 1.6
17113 kPa | 1496.7 ± 1.6
17158 kPa | 1497 ± 1.6
17183 kPa | 1497.1 ± 1.6
17228 kPa | 1497.2 ± 1.6
17263 kPa | 1497.4 ± 1.6
17293 kPa | 1497.5 ± 1.6
17334 kPa | 1497.7 ± 1.6
17375 kPa | 1497.8 ± 1.6
17405 kPa | 1498 ± 1.6
17450 kPa | 1498.2 ± 1.6
17485 kPa | 1498.2 ± 1.6
17520 kPa | 1498.5 ± 1.6
17555 kPa | 1498.5 ± 1.6
17654 kPa | 1498.9 ± 1.6
17694 kPa | 1499.1 ± 1.6
17726 kPa | 1499.2 ± 1.6
17756 kPa | 1499.4 ± 1.6
17801 kPa | 1499.4 ± 1.6
17831 kPa | 1499.5 ± 1.6
17856 kPa | 1499.6 ± 1.6
17902 kPa | 1499.9 ± 1.6
17933 kPa | 1499.9 ± 1.6
17969 kPa | 1500.2 ± 1.6
18004 kPa | 1500.4 ± 1.6
18044 kPa | 1500.5 ± 1.6
18075 kPa | 1500.4 ± 1.6
18124 kPa | 1500.8 ± 1.6
18164 kPa | 1500.9 ± 1.6
18194 kPa | 1501.1 ± 1.6
18235 kPa | 1501.3 ± 1.6
18276 kPa | 1501.4 ± 1.6
18313 kPa | 1501.5 ± 1.6
18349 kPa | 1501.6 ± 1.6
18391 kPa | 1501.8 ± 1.6
18428 kPa | 1502 ± 1.6
18459 kPa | 1502 ± 1.6
18502 kPa | 1502.3 ± 1.6
18544 kPa | 1502.5 ± 1.6
18574 kPa | 1502.5 ± 1.6
18611 kPa | 1502.7 ± 1.6
18650 kPa | 1502.7 ± 1.6
18678 kPa | 1502.9 ± 1.6
18720 kPa | 1503.1 ± 1.6
18753 kPa | 1503.1 ± 1.6
18785 kPa | 1503.3 ± 1.6
18822 kPa | 1503.5 ± 1.6
18859 kPa | 1503.7 ± 1.6
18888 kPa | 1503.6 ± 1.6
18925 kPa | 1503.8 ± 1.6
18953 kPa | 1503.9 ± 1.6
18981 kPa | 1504.1 ± 1.6
19018 kPa | 1504.2 ± 1.6
19055 kPa | 1504.4 ± 1.6
19084 kPa | 1504.5 ± 1.6
19116 kPa | 1504.5 ± 1.6
19145 kPa | 1504.6 ± 1.6
19183 kPa | 1504.8 ± 1.6
19210 kPa | 1505 ± 1.6
19243 kPa | 1505 ± 1.6
19282 kPa | 1505.2 ± 1.6
19320 kPa | 1505.4 ± 1.6
19349 kPa | 1505.5 ± 1.6
19392 kPa | 1505.6 ± 1.6
19430 kPa | 1505.9 ± 1.6
19460 kPa | 1505.8 ± 1.6
